Data: patent publication US20220257571A1, “INHIBITOR OF MAP KINASE INTERACTING SERINE/THREONINE KINASE 1 (MNK1) AND MAP KINASE INTERACTING SERINE/THREONINE KINASE 2 (MNK2), CANCER THERAPY AND THERAPEUTIC COMBINATIONS” (FUNPACIÓ HOSPITAL UNIVERSITARI VALL D'HEBRON - INSTITUT DE …, priority 2019, published 2022)

Key:
MNK1/2 = target: T1, MNK1/2; test: radiometric kinase assay (33PanQinase Activity Assay), IC50; format: biochemical; conditions: MNK1/2, isoform not stated; read-out: enzymatic IC50
T1 construct: rows headed: enzymatic IC50
Protocol: (§1) The kinase activity of the compound was measured by a radiometric kinase assay (^33PanQinase® Activity Assay) carried out by Proqinase (www.proqinase.com).
(§2) The assays were carried out in 96-well FlashPlates™ by PerkinElmer (Boston, Mass., USA) with a reaction volume of 50 μl. The reaction cocktail was pipetted in 4 steps: (1) 20 μl buffer, (2) 5 μl ATP solution (in H2O), (3) 5 μl compound (in 10% DMSO) and (4) 20 μl enzyme/substrate mixture. Lastly, the cocktail contained 70 mM HEPES-NaOH pH 7.5, 3 mM MgCl2, 3 mM MnCl2, 3 μM sodium orthovanadate, 1.2 mM DTT, 50 μg/ml PEG20000, ATP (1 μM for MNK1 and 0.3 μM for MNK2), [γ-^33P]-ATP (approx. […] per well), protein kinase (variable amounts depending on the batch) and substrate (2 μg/50 μl).
(§3) Reaction cocktails were incubated at 30° C. for 60 minutes. The reaction was stopped with 50 μl of 2% H3PO4 (v/v), the plates were sucked, they were washed twice with 200 μl of 0.9% NaCl (w/v) and the incorporation of ^33Pi (MicroBeta microplate scintillation counter, Wallac) was determined. All assays were performed with a Beckman Coulter/SAGIAN™ system.
(§4) The residual activity (in %) for each well of a particular plate was calculated using the following formula (wherein high control is the kinase activity in absence of an inhibitor and low control is the radioactivity value of the substrate in absence of a kinase).

MNK1 = target: T2, MNK1 (Homo sapiens, UniProt Q9BUB5); test: radiometric kinase assay (33PanQinase Activity Assay), MNK1; format: biochemical
T2 construct: purchased Proqinase
Protocol: as §1, §2, §3, §4
To screen compounds, the residual activity of both kinases was analysed after treatment with 10 μM of the compounds.
To study selectivity, residual activity was measured at 1 μM from a 320-kinase panel.

MNK2 = target: T3, MNK2 (Homo sapiens, UniProt Q9HBH9); test: radiometric kinase assay (33PanQinase Activity Assay), MNK2; format: biochemical; conditions: after treatment with 10 μM compound; ATP 0.3 μM; read-out: residual activity of MNK2
T3 construct: purchased Proqinase
Protocol: The assays were carried out in 96-well FlashPlates™ by PerkinElmer (Boston, Mass., USA) with a reaction volume of 50 μl. The reaction cocktail was pipetted in 4 steps: (1) 20 μl buffer, (2) 5 μl ATP solution (in H2O), (3) 5 μl compound (in 10% DMSO) and (4) 20 μl enzyme/substrate mixture. […]
Reaction cocktails were incubated at 30° C. for 60 minutes. The reaction was stopped with 50 μl of 2% H3PO4 (v/v), the plates were sucked, they were washed twice with 200 μl of 0.9% NaCl (w/v) and the incorporation of ^33Pi (MicroBeta microplate scintillation counter, Wallac) was determined. […]

[1] = test system: eIF4E phosphorylation in MCF10 cells; test: inhibition of eIF4E phosphorylation by Western Blot in MCF10 cells; format: cell-based; conditions: Homo sapiens; immortalised non-tumour breast cells (MCF10)
Protocol: MCF10A cells (also commercially available) were grown in DMEM/F-12 medium (Dulbecco's Modified Eagle Medium: 3.125 g/L D-Glucosa, 365 mg/L L-Glutamine, Nutrient Mixture F-12 (Gibco)) supplemented with 10% FBS, 100 U/ml penicillin, 100 μg/ml streptomycin, 1% L-Glutamine (Cambrex), 10 ng/ml choleric toxin (Sigma-Aldrich), 0.005 mg/ml insulin (Sigma), 100 ng/ml hydrocortisone (Sigma) and 20 ng/ml EGF (Epidermal growth factor, Sigma).
Inhibition of eIF4E phosphorylation was quantified by Western Blot. Cells were seeded in 60 mm plates (700,000 cells for 24 h, 500,000 cells for 48 h and 300,000 cells for 72 h).
After 24 h, the treatments were added. The stocks of compounds were prepared in […] at a concentration 200 times more concentrated than the treatment concentration. Thus, in all cases, the final concentration of DMSO in the medium was 0.5%.
After incubation, proteins were removed and Western Blot was performed. […] The samples were centrifuged at 15,000 g and the supernatant was quantified by the Bradford method. […] Selectivity against MNK was analysed with ERK, p-ERK, MNK1, p-MNK1, 4EBP1 and p-4EBP1 antibodies.

MDA-MB-231 cells = test: FACS analysis of cell cycle and subG1, MDA-MB-231; format: cell-based; conditions: MDA-MB-231, higher concentrations
Protocol: To determine how cell growth is affected at higher concentrations of EB1, a FACS analysis was performed to monitor the state of the cell cycle and the percentage of cells in subG1 as an indicator of cell death. […] Equivalent results have been described for the MNK1/2 inhibitor BAY 11433296 (FIG. 4).

T2 sequence (Q9BUB5 whole entry): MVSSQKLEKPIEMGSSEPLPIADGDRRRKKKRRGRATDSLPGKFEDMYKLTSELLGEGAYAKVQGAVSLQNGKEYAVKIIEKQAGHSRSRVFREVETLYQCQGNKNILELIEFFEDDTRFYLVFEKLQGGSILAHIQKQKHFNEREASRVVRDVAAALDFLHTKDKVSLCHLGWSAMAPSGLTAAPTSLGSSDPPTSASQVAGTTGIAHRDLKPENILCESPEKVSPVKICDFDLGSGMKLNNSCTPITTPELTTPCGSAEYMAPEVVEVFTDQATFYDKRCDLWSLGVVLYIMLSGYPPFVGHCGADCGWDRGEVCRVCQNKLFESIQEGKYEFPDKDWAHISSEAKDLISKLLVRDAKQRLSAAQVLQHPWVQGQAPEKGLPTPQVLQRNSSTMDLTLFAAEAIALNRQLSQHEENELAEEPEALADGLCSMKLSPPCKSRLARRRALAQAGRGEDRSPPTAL
T3 sequence (Q9HBH9 whole entry): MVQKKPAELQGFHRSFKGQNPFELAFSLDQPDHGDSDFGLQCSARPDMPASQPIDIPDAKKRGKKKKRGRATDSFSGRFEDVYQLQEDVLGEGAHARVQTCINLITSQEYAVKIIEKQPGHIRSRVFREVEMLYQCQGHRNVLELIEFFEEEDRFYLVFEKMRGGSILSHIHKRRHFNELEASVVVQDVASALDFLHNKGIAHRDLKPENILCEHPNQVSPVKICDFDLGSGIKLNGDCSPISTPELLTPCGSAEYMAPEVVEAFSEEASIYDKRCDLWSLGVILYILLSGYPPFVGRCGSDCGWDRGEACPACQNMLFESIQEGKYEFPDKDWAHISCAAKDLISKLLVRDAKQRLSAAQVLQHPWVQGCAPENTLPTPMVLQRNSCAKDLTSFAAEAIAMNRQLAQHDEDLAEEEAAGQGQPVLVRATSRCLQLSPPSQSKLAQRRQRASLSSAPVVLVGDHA

Question: Which IC50 (MNK1/2) does the source give for `Nc1n[nH]c2nc(-c3ccccc3)cc(-c3ccccc3)c12` [EB1, 4,6-diphenyl-1H-pyrazolo[3,4-b]pyridin-3-amine] here?
Answer: The IC50 was 700 nM.

Question: And the remaining activity at 10 µM (MNK1; after treatment with 10 μM compound, ATP 1 μM, read-out: residual activity of MNK1)?
Answer: The remaining activity at 10 µM was 14%.

Question: And the inhibition at 1 µM (MNK1; at 1 uM, kinase panel)?
Answer: Its inhibition at 1 µM is 48%.

Question: What about the remaining activity at 10 µM (MNK2) of the same molecule?
Answer: The remaining activity at 10 µM was 52%.

Question: What about the EC50 [1] of the same molecule?
Answer: The EC50 was 700 nM.

Question: And the “cells in the G1 phase of the cell cycle” value (MDA-MB-231 cells)?
Answer: The value was “increase of cells could be observed in the G1 phase”.
